According to patent US7727980B2, “Tricyclic androgen receptor modulator compounds and methods” (priority 2001, dated 2010):
Read-outs that look alike come from different tables or passages of the source.

Tests used:
human AR [1] = molecular target: T1, human AR (Homo sapiens, UniProt P10275); test: AR whole cell competitive binding assay (3H-DHT), transfected COS-1 cells; parameters: expressed in transfected cells; transient transfection with pRShAR; details: COS-1 cells, 1 nM 3H-DHT, Cheng-Prusoff from IC50
T1 sequence (P10275 1-920): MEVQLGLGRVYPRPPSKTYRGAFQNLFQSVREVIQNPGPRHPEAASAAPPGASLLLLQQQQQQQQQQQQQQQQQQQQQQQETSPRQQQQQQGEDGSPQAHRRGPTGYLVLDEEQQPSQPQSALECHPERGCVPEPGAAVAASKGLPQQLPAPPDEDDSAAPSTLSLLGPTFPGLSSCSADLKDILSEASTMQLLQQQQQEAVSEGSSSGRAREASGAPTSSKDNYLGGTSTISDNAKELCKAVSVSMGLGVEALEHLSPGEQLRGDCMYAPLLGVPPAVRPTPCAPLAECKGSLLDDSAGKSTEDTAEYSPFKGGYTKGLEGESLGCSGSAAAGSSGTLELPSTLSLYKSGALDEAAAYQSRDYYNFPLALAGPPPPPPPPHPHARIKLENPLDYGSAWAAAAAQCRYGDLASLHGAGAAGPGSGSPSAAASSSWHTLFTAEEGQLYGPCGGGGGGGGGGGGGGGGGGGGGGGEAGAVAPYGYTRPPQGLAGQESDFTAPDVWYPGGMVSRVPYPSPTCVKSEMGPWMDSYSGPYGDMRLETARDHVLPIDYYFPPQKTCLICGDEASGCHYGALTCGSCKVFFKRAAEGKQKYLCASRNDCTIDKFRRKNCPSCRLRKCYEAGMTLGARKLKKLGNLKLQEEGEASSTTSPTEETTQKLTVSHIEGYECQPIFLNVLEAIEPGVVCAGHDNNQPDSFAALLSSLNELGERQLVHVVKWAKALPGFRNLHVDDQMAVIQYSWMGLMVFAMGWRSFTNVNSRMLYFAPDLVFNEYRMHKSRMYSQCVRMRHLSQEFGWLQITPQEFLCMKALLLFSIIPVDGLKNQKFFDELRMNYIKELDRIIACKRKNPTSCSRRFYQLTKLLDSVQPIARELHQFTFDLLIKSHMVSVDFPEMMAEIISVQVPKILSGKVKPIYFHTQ

human AR [2] = molecular target: T1, human AR; test: Co-transfection assay, AR antagonist activity in presence of DHT, CV-1 cells; assay type: cell-based; parameters: expressed in transfected cells; host or cells: CV-1 cells (African green monkey kidney fibroblasts), transient transfection with pRShAR; details: CV-1 cells; for IC50: antagonist potency or IC50, DHT at its EC50 concentration; for AR Antagonist CV-1 Cells Efficacy (%): percent maximal inhibition, DHT at its EC50 concentration
human AR [3] = molecular target: T1, human AR; test: Co-transfection assay, AR agonist activity, CV-1 cells; assay type: cell-based; parameters: expressed in transfected cells; host or cells: CV-1 cells (African green monkey kidney fibroblasts), transient transfection with pRShAR; details: for AR Agonist CV-1 Cells Efficacy (%): percent maximal response relative to reference agonist DHT
[4] = AR Antagonist CV-1 Cells Potency (nM)
[5] = AR Agonist CV-1 Cells Potency (nM), agonist potency or EC50
[6] = read-out: AR Antagonist CV-1 Cells Potency
[7] = agonist potency or EC50, read-out: AR Agonist CV-1 Cells Potency

O=c1cc(C(F)(F)F)c2c3c(ccc2[nH]1)N(CC(F)(F)F)C1CCCC31 (single isomer, unassigned; (+)) [Compound 178, (+)-4c,5,6,7,7a(cis),8-Hexahydro-8-(2,2,2-trifluoroethyl)-4-trifluoromethylcyclopentano-[g]pyrrolo[3,2-f]quinolin-2(1H)-one]
Ki (human AR [1]; AR Binding Ki (nM)): 900 nM | IC50 (human AR [2]; [4]): 50 nM | AR Antagonist CV-1 Cells Efficacy (%) (human AR [2]): 48% | EC50 (human AR [3]; [5]): 21 nM | AR Agonist CV-1 Cells Efficacy (%) (human AR [3]): 24%

6-Methyl-4-trifluoromethyl-7H-pyrrolo[3,2-f]quinolin-2(1H)-one [Compound 112]
Ki (human AR [1]; read-out: AR Binding Ki): 119 nM | IC50 (human AR [2]; [6]): 10 nM | AR Antagonist CV-1 Cells Efficacy (%) (human AR [2]): 75% | EC50 (human AR [3]; [7]): > 10000 nM | AR Agonist CV-1 Cells Efficacy (%) (human AR [3]): na (na = not active (i.e. efficacy of <20 and potency of >10,000))

O=c1cc(C(F)(F)F)c2c3c(ccc2[nH]1)N(CC(F)(F)F)C1CCCCC31 (racemic) [Compound 132, (±)-4c,5,6,7,8,8a(cis),9-Heptahydro-9-(2,2,2-trifluoroethyl)-4-trifluoro-methyl-9H-cyclohexano[g]pyrrolo[3,2-f]quinolin-2(1H)-one]
Ki (human AR [1]; AR Binding Ki (nM)): 21 nM | IC50 (human AR [2]; [4]): > 10000 nM | AR Antagonist CV-1 Cells Efficacy (%) (human AR [2]): na (na = not active (i.e. efficacy of <20 and potency of >10,000)) | EC50 (human AR [3]; [5]): 4.8 nM | AR Agonist CV-1 Cells Efficacy (%) (human AR [3]): 70%

5,6-Dimethyl-7-(2,2,2-trifluoroethyl)-4-trifluoromethyl-7H-pyrrolo[3,2-f]quinolin-2(1H)-one [Compound 150]
Ki (human AR [1]; read-out: AR Binding Ki): 4 nM | IC50 (human AR [2]; [6]): > 10000 nM | AR Antagonist CV-1 Cells Efficacy (%) (human AR [2]): na (na = not active (i.e. efficacy of <20 and potency of >10,000)) | EC50 (human AR [3]; [7]): 2.1 nM | AR Agonist CV-1 Cells Efficacy (%) (human AR [3]): 95%

CCN1c2ccc3[nH]c(=O)cc(C(F)(F)F)c3c2C2CCCC21 (racemic) [Compound 121, (±)-4c,5,6,7,7a(cis),8-Hexahydro-8-ethyl-4-trifluoromethylcyclopentano-[g]pyrrolo[3,2-f]quinolin-2(1H)-one]
Ki (human AR [1]; AR Binding Ki (nM)): 7.6 nM | IC50 (human AR [2]; [4]): > 10000 nM | AR Antagonist CV-1 Cells Efficacy (%) (human AR [2]): na (na = not active (i.e. efficacy of <20 and potency of >10,000)) | EC50 (human AR [3]; [5]): 43 nM | AR Agonist CV-1 Cells Efficacy (%) (human AR [3]): 97%

CCC1CCOc2cc3c(cc21)c(C(F)(F)F)c(F)c(=O)n3C (racemic) [Compound 221, (±)-6,7-Dihydro-6-ethyl-3-fluoro-4-trifluoromethyl-1-methyl-8H-pyrano[3,2-g]quinolin-2(1H)-one]
Ki (human AR [1]; AR Binding Ki (nM)): 29 nM | IC50 (human AR [2]; [4]): 311 nM | AR Antagonist CV-1 Cells Efficacy (%) (human AR [2]): 78% | EC50 (human AR [3]; [5]): > 10000 nM | AR Agonist CV-1 Cells Efficacy (%) (human AR [3]): na (na = not active (i.e. efficacy of <20 and potency of >10,000))

5-(2-Ethoxycarbonylethyl)-6-methyl-7-(2,2,2-trifluoroethyl)-4-trifluoromethyl-7H-pyrrolo[3,2-f]quinolin-2(1H)-one [Compound 162]
Ki (human AR [1]; read-out: AR Binding Ki): 113 nM | IC50 (human AR [2]; [6]): > 10000 nM | AR Antagonist CV-1 Cells Efficacy (%) (human AR [2]): na (na = not active (i.e. efficacy of <20 and potency of >10,000)) | EC50 (human AR [3]; [7]): 20 nM | AR Agonist CV-1 Cells Efficacy (%) (human AR [3]): 71%

O=c1cc(C(F)(F)F)c2c3c(ccc2[nH]1)N(CC(F)(F)F)C1CCCC31 (racemic) [Compound 119, (±)-4c,5,6,7,7a(cis),8-Hexahydro-8-(2,2,2-trifluoroethyl)-4-trifluoromethylcyclopentano-[g]pyrrolo[3,2-f]quinolin-2(1H)-one]
Ki (human AR [1]; AR Binding Ki (nM)): 2.6 nM | IC50 (human AR [2]; [4]): > 10000 nM | AR Antagonist CV-1 Cells Efficacy (%) (human AR [2]): na (na = not active (i.e. efficacy of <20 and potency of >10,000)) | EC50 (human AR [3]; [5]): 2.5 nM | AR Agonist CV-1 Cells Efficacy (%) (human AR [3]): 94%

CCCC1C(CC)c2c(ccc3[nH]c(=O)cc(C(F)(F)F)c23)N1CC(F)(F)F (racemic) [Compound 146, (±)-5,6-Dihydro-5-ethyl-6-propyl-7-(2,2,2-trifluoroethyl)-4-trifluoromethyl-7H-pyrrolo[3,2-f]quinolin-2(1H)-one]
Ki (human AR [1]; AR Binding Ki (nM)): 75 nM | IC50 (human AR [2]; [4]): 1 nM | AR Antagonist CV-1 Cells Efficacy (%) (human AR [2]): 66% | EC50 (human AR [3]; [5]): 49 nM | AR Agonist CV-1 Cells Efficacy (%) (human AR [3]): 38%

6-(1-Methoxyethyl)-5-methyl-7-(2,2,2-trifluoroethyl)-4-trifluoromethyl-7H-pyrrolo[3,2-f]quinolin-2(1H)-one [Compound 172]
Ki (human AR [1]; read-out: AR Binding Ki): 12 nM | IC50 (human AR [2]; [6]): > 10000 nM | AR Antagonist CV-1 Cells Efficacy (%) (human AR [2]): na (na = not active (i.e. efficacy of <20 and potency of >10,000)) | EC50 (human AR [3]; [7]): 19 nM | AR Agonist CV-1 Cells Efficacy (%) (human AR [3]): 89%

CCN1c2ccc3[nH]c(=O)cc(C(F)(F)F)c3c2CCC1(C)C [Compound 108, 8-Ethyl-5,6,7,8-tetrahydro-7,7-dimethyl-4-trifluoromethylpyridino[3,2-f]quinolin-2(1H)-one]
Ki (human AR [1]; AR Binding Ki (nM)): 6.7 nM | IC50 (human AR [2]; [4]): > 10000 nM | AR Antagonist CV-1 Cells Efficacy (%) (human AR [2]): na (na = not active (i.e. efficacy of <20 and potency of >10,000)) | AR Agonist CV-1 Cells Efficacy (%) (human AR [3]): 66%

CCC1=CC(C)(C)Oc2cc3oc(=O)cc(C(F)(F)F)c3cc21 [Compound 227, 6-Ethyl-8,8-dimethyl-4-trifluoromethyl-8H-pyrano[3,2-g]coumarin]
Ki (human AR [1]; AR Binding Ki (nM)): 33 nM | IC50 (human AR [2]; [4]): 25 nM | AR Antagonist CV-1 Cells Efficacy (%) (human AR [2]): 75% | EC50 (human AR [3]; [5]): > 10000 nM | AR Agonist CV-1 Cells Efficacy (%) (human AR [3]): na (na = not active (i.e. efficacy of <20 and potency of >10,000))

O=c1cc(C(F)(F)F)c2cc3c(cc2[nH]1)c1c(n3CC(F)(F)F)CCC1 [Compound 159, 6-(2,2,2-Trifluoroethyl)-4-trifluoromethyl-6,7,8,9-tetrahydrocyclopentano[i]pyrrolo[2,3-g]quinolin-2(1H)-one]
Ki (human AR [1]; AR Binding Ki (nM)): 989 nM | IC50 (human AR [2]; [4]): 15 nM | AR Antagonist CV-1 Cells Efficacy (%) (human AR [2]): 66% | EC50 (human AR [3]; [5]): > 10000 nM | AR Agonist CV-1 Cells Efficacy (%) (human AR [3]): na (na = not active (i.e. efficacy of <20 and potency of >10,000))

O=c1cc(C(F)(F)F)c2c3c(ccc2[nH]1)N(CC(F)(F)F)CC3c1ccccc1 (racemic) [Compound 141, (±)-5,6-Dihydro-5-phenyl-7-(2,2,2-trifluoroethyl)-4-trifluoromethyl-7H-pyrrolo[3,2-f]quinolin-2(1H)-one]
Ki (human AR [1]; AR Binding Ki (nM)): 97 nM | IC50 (human AR [2]; [4]): 34 nM | AR Antagonist CV-1 Cells Efficacy (%) (human AR [2]): 44% | EC50 (human AR [3]; [5]): 86 nM | AR Agonist CV-1 Cells Efficacy (%) (human AR [3]): 46%

CC1CCc2cc3[nH]c(=O)cc(C(F)(F)F)c3cc2N1CC(F)(F)F (stereo not shown) [Compound 197, 4-Trifluoromethyl-7-methyl-6-(2,2,2-trifluoroethyl)-6,7,8,9-tetrahydropyrido[2,3-g]quinolin-2(1H)-one]
Ki (human AR [1]; AR Binding Ki (nM)): 79 nM | IC50 (human AR [2]; [4]): > 10000 nM | AR Antagonist CV-1 Cells Efficacy (%) (human AR [2]): na (na = not active (i.e. efficacy of <20 and potency of >10,000)) | EC50 (human AR [3]; [5]): 12 nM | AR Agonist CV-1 Cells Efficacy (%) (human AR [3]): 66%

CCCN1c2ccc3[nH]c(=O)cc(C(F)(F)F)c3c2C2CCCC21 (racemic) [Compound 125, (±)-4c,5,6,7,7a(cis),8-Hexahydro-8-propyl-4-trifluoromethylcyclopentano-[g]pyrrolo-[3,2-f]quinolin-2(1H)-one]
Ki (human AR [1]; AR Binding Ki (nM)): 1.3 nM | IC50 (human AR [2]; [4]): > 10000 nM | AR Antagonist CV-1 Cells Efficacy (%) (human AR [2]): na (na = not active (i.e. efficacy of <20 and potency of >10,000)) | EC50 (human AR [3]; [5]): 38 nM | AR Agonist CV-1 Cells Efficacy (%) (human AR [3]): 121%
